The source made the active and inactive calls.
What was measured:
[1] = biological target: T1, Short transient receptor potential channel 4 (Mus musculus, UniProt Q9QUQ5); assay: mouse TRPC4 channel inhibitors, dose response, cell-based, HEK293 TRPC4/mu-opioid, Fluo-4 calcium (AID 434942); format: functional;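 note: potency of inhibitors blocking the TRPC4 calcium response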
T1 sequence (Q9QUQ5 whole entry): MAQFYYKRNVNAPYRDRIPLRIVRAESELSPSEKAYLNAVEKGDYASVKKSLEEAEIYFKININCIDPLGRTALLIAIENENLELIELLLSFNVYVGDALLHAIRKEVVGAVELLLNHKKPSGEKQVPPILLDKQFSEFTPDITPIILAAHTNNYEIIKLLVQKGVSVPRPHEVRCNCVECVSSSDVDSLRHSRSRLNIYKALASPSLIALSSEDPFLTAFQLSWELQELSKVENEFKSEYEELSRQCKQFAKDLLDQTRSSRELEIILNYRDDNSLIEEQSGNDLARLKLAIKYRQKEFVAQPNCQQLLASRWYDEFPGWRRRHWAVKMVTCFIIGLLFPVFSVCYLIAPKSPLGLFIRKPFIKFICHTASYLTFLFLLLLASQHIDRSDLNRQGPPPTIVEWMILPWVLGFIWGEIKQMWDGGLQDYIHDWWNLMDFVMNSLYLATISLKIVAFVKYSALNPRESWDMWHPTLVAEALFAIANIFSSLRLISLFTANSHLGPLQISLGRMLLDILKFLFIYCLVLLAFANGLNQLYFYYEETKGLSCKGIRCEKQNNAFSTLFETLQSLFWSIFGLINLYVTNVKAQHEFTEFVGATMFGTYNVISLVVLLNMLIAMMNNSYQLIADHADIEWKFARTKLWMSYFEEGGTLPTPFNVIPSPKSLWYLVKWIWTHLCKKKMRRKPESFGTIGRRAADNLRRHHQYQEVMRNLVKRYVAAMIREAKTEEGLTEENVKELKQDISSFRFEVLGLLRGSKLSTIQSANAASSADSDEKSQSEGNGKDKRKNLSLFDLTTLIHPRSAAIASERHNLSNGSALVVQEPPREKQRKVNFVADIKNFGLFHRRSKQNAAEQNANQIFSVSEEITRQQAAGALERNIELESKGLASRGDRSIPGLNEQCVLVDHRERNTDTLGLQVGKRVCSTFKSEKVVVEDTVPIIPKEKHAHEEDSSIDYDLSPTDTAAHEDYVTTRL

[2] = biological target: T2, Heat shock factor protein 1 (Mus musculus, UniProt P38532); assay: HSF1 potentiators in luciferase reporter cells, confirmation, cell-based, NIH3T3, luminescence, dose retest (AID 435004); format: functional;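 note: stress induced by proteasome inhibitor MG132 added 30 min after compound; luciferase reporter driven by HSF1 response element in NIH3T3 cells; actives raise luminescence as potentiators of the MG132 stress response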
T2 sequence (P38532 whole entry): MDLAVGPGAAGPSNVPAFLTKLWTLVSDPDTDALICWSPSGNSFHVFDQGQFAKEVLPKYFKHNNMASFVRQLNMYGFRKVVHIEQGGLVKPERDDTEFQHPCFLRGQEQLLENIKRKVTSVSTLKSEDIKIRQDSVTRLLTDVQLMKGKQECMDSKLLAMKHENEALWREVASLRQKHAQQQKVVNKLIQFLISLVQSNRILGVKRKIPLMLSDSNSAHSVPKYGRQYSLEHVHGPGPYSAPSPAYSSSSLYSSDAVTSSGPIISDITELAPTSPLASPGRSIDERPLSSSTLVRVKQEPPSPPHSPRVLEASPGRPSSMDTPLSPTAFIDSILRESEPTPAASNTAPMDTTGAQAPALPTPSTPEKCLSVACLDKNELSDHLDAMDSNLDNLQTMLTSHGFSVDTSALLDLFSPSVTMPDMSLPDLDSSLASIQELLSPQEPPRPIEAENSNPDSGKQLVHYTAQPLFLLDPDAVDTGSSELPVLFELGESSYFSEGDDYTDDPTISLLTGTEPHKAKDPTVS

[3] = biological target: T1, Short transient receptor potential channel 4; assay: SAR Analysis for the identification of selective inhibits of the transient receptor potential cation channel C4 (TRPC4): Automated Electrophysiology. [Related pubchem assays (depositor defined):AID2256]; format: functional
[4] = cytotoxicity in MIN6 insulinoma cells, dose response, cytotoxicity control, cell-based, mouse insulinoma (AID 2122); format: functional;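 note: confirmatory high-throughput counterscreen run to flag cytotoxic compounds; mouse MIN-6 beta cells carrying an insulin promoter eGFP reporter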
[5] = biological target: Eukaryotic translation initiation factor 4H (Homo sapiens, UniProt Q15056); assay: human eIF4H binding inhibitors, primary screen, translation initiation inhibitor project, biochemical, uHTS, fluorescence polarization (AID 2012)
[6] = insulin promoter down-regulators in MIN6 cells, imaging, high-content screening, mouse beta cells (AID 1628); format: functional
[7] = biological target: DNA dC->dU-editing enzyme APOBEC-3G (Homo sapiens, UniProt Q9HC16); format: functional;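 note: Dose-response counterscreen measuring inhibition of APOBEC3G DNA deaminase activity, run while confirming APOBEC3A inhibitors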
[8] = biological target: DNA dC->dU-editing enzyme APOBEC-3A (Homo sapiens, UniProt P31941); assay: Dose Response confirmation of small molecule APOBEC3A DNA Deaminase Inhibitors via a fluorescence-based single-stranded DNA deaminase assay. [Related pubchem assays (depositor defined):AID493011, AID493024]; format: functional
Sequence of DNA dC->dU-editing enzyme APOBEC-3A (P31941 whole entry): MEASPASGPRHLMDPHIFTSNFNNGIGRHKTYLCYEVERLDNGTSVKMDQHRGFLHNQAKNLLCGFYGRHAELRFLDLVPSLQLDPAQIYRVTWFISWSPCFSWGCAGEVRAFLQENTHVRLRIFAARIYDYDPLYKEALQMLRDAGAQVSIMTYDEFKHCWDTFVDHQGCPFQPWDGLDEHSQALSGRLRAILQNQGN

[9] = biological target: Polyadenylate-binding protein 1 (Homo sapiens, UniProt P11940); assay: PABP poly(A) RNA binding inhibitors, primary screen, biochemical, fluorescence polarization, uHTS (AID 2014)
Sequence of Polyadenylate-binding protein 1 (P11940 whole entry): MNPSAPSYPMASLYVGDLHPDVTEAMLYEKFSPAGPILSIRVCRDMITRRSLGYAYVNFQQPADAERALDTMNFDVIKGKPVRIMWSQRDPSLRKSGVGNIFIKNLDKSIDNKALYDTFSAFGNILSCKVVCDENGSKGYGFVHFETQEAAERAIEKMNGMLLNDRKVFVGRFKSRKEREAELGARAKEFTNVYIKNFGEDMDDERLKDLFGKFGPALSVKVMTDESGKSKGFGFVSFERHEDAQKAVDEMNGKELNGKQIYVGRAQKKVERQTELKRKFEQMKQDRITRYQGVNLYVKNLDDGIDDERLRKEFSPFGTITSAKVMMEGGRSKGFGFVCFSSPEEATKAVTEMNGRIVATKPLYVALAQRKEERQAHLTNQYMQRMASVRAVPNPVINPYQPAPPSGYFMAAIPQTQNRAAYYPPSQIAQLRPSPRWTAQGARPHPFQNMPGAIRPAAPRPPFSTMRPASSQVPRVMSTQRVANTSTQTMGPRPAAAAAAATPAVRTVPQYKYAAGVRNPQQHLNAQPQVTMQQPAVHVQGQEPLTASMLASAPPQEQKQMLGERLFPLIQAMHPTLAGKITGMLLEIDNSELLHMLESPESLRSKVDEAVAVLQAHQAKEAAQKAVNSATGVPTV

[10] = growth induction of Burl-1 ts yeast mutant, dose response, counter-screen for SUMOylation pathway inhibitor project, whole organism, S. cerevisiae, luminescence (AID 463199); format: functional
[11] = biological target: T3, Intestinal-type alkaline phosphatase (Mus musculus, UniProt P24822); assay: PubChem AID 488785; format: functional
T3 sequence (P24822 whole entry): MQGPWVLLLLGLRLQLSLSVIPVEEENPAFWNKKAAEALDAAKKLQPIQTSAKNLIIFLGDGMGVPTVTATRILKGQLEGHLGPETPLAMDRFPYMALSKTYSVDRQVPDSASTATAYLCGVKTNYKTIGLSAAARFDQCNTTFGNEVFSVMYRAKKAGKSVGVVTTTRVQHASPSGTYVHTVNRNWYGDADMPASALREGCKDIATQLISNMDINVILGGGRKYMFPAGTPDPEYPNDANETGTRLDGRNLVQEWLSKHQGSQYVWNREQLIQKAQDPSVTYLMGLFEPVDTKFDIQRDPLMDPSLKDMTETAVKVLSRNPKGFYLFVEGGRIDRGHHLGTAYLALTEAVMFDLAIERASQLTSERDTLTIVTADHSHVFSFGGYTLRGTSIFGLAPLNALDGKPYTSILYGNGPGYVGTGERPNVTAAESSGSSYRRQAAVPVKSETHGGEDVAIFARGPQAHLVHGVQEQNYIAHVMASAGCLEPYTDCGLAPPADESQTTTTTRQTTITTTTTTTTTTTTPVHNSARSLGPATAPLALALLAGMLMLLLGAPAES

[12] = biological target: T4, Intestinal-type alkaline phosphatase (Homo sapiens, UniProt P09923); assay: activation of human intestinal alkaline phosphatase – biochemical, dose response (AID 488873); format: functional
T4 sequence (P09923 whole entry): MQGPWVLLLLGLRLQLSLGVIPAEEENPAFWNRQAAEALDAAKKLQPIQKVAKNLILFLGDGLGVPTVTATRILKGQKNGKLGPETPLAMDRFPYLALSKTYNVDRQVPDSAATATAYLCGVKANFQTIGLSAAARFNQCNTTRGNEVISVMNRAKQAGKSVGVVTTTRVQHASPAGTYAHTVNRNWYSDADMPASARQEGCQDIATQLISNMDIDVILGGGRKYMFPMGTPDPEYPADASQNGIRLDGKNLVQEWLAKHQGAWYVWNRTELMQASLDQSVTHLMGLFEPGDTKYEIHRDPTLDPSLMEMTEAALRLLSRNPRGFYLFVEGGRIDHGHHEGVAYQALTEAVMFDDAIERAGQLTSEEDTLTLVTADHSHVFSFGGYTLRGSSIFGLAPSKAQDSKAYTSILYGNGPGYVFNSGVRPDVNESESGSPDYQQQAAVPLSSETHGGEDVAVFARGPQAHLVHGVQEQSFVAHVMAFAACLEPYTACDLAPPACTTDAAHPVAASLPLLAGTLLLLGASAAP

[13] = biological target: T5, Alkaline phosphatase, tissue-nonspecific isozyme (Homo sapiens, UniProt P05186); assay: TNAP enzyme inhibition by screening hits, dose response, selectivity assay for mouse IAP inhibitor project, biochemical, human TNAP, uHTS hits (AID 488906); format: functional
T5 sequence (P05186 whole entry): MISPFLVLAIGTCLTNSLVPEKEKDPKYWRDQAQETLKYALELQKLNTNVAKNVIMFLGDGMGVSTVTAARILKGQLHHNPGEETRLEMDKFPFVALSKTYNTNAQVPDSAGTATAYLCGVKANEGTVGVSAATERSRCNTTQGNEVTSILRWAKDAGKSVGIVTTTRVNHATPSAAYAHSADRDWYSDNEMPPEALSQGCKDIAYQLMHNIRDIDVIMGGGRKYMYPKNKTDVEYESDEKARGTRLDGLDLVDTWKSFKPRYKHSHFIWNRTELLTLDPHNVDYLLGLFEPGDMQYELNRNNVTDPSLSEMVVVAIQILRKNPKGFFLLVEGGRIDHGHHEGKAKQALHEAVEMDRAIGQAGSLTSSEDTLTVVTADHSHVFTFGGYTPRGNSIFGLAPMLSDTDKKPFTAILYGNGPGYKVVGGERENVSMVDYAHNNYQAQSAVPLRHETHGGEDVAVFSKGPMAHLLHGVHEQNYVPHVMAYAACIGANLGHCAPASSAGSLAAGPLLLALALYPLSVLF

Cytochrome P450 1A2 = biological target: T6, Cytochrome P450 1A2 (Homo sapiens, UniProt P05177);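 note: PubChem cytochrome P450 panel assay, CYP1A2 panel member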
T6 sequence (P05177 whole entry): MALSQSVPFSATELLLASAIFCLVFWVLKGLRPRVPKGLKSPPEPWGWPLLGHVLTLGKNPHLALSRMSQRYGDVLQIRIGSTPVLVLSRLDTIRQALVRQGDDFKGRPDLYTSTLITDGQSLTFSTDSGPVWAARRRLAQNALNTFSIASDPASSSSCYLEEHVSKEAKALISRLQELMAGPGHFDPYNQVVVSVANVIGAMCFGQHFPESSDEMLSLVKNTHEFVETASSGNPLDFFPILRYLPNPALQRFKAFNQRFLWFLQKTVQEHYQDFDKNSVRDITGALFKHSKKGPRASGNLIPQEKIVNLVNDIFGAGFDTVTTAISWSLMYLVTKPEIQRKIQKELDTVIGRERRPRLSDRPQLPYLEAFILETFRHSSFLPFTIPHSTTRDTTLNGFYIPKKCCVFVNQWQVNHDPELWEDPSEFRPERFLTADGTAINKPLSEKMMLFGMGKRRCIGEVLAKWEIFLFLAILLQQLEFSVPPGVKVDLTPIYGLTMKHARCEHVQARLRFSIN

Large T antigen = Large T antigen (Simian virus 40, UniProt P03070); format: functional, Betapolyomavirus macacae;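 note: Confirmatory-stage PubChem screen for compounds that inhibit SV40 T antigen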
Sequence of Large T antigen (P03070 whole entry): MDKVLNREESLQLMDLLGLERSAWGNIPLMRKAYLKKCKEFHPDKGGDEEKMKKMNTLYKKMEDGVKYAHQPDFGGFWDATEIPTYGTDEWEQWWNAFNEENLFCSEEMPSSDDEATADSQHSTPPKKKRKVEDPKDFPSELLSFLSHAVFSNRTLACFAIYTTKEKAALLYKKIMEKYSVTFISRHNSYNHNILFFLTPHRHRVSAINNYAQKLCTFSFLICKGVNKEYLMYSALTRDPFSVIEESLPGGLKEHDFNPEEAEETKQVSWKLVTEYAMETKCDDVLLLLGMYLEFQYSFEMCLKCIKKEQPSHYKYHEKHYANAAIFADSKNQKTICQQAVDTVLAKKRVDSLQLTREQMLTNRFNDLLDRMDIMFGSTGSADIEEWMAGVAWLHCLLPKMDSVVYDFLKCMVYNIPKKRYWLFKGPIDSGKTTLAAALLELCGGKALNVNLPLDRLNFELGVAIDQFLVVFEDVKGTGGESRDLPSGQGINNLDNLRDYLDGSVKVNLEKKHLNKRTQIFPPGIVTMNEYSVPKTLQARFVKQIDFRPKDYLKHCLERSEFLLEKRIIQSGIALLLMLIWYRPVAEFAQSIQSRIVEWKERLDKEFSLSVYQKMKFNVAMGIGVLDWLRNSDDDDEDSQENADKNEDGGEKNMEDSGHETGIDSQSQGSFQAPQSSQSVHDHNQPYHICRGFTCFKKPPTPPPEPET

[14] = biological target: T5, Alkaline phosphatase, tissue-nonspecific isozyme; assay: inhibition of tissue-nonspecific alkaline phosphatase – biochemical, dose response (AID 488882); format: functional
[15] = biological target: T4, Intestinal-type alkaline phosphatase; assay: human IAP inhibitors, dose response, biochemical, luminescent, uHTS hits, set 2 (AID 488793); format: functional
[16] = biological target: T4, Intestinal-type alkaline phosphatase; assay: Dose Response confirmation of uHTS hits from a small molecule inhibitors of human intestinal alkaline phosphatase via a luminescent assay. [Related pubchem assays (depositor defined):AID2544, AID2574]; format: functional
[17] = biological target: T3, Intestinal-type alkaline phosphatase; assay: PubChem AID 488874; format: functional
[18] = biological target: T7, Replicative DNA helicase DnaB (Mycobacterium tuberculosis, UniProt P9WMR3); assay: DnaB intein splicing inhibitors, dose response, biochemical, cell-free fluorescence (AID 449749); format: functional
T7 sequence (P9WMR3 whole entry): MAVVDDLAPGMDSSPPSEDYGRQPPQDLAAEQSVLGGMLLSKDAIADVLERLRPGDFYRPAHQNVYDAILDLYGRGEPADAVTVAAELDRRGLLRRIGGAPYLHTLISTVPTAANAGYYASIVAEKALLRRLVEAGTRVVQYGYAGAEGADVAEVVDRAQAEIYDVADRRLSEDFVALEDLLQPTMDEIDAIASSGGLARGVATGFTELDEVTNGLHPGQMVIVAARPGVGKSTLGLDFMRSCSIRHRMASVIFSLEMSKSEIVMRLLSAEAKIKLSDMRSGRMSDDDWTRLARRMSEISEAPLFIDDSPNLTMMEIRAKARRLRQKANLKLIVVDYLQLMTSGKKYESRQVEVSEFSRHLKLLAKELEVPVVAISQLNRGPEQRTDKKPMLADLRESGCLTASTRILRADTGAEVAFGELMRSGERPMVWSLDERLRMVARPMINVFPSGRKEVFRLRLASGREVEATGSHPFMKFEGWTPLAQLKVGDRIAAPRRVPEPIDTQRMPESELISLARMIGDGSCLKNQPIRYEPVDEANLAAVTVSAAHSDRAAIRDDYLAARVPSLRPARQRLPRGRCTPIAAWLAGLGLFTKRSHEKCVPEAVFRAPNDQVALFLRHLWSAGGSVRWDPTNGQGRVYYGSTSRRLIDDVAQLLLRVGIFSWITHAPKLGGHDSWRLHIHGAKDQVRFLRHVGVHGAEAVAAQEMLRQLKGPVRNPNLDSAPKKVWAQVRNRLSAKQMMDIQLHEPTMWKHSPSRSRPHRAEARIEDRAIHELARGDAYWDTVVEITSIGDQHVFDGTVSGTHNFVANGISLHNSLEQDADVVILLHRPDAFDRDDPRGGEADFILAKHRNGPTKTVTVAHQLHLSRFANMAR

Protein RecA = biological target: T8, Protein RecA (Mycobacterium tuberculosis, UniProt P9WHJ3); assay: Fluorescence Cell-Free Homogeneous Dose Retest to Identify Inhibitors of RecA-Intein Splicing Activity. [Related pubchem assays (depositor defined):AID2097, AID2223, AID489010, AID492950]; format: functional
T8 sequence (P9WHJ3 whole entry): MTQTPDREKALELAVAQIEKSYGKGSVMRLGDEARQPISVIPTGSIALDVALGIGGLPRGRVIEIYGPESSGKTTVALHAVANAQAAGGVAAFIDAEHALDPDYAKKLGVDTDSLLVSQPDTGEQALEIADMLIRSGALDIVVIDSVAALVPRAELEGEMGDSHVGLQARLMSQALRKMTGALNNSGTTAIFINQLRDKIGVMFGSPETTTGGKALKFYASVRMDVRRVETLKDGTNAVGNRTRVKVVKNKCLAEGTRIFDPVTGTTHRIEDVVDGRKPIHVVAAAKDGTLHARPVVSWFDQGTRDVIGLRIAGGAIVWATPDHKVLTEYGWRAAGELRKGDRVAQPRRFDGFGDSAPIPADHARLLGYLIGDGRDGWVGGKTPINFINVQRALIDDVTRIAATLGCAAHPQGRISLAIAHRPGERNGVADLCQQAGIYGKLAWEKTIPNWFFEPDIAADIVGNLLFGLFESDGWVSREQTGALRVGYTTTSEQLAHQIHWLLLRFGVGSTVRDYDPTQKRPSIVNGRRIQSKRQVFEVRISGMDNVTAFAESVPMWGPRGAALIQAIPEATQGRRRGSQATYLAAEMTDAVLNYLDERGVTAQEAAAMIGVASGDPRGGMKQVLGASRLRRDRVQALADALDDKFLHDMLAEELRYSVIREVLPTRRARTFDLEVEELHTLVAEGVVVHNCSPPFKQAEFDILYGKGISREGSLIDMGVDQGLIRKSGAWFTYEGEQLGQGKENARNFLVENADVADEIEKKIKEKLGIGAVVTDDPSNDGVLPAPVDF

[19] = biological target: Lysine-specific demethylase 4C (Homo sapiens, UniProt Q9H3R0); assay: GASC-1 (JMJD2C) histone demethylase inhibitors, dose response, biochemical, DELFIA europium, cherry-picked samples (AID 488835); format: functional
Sequence of Lysine-specific demethylase 4C (Q9H3R0 whole entry): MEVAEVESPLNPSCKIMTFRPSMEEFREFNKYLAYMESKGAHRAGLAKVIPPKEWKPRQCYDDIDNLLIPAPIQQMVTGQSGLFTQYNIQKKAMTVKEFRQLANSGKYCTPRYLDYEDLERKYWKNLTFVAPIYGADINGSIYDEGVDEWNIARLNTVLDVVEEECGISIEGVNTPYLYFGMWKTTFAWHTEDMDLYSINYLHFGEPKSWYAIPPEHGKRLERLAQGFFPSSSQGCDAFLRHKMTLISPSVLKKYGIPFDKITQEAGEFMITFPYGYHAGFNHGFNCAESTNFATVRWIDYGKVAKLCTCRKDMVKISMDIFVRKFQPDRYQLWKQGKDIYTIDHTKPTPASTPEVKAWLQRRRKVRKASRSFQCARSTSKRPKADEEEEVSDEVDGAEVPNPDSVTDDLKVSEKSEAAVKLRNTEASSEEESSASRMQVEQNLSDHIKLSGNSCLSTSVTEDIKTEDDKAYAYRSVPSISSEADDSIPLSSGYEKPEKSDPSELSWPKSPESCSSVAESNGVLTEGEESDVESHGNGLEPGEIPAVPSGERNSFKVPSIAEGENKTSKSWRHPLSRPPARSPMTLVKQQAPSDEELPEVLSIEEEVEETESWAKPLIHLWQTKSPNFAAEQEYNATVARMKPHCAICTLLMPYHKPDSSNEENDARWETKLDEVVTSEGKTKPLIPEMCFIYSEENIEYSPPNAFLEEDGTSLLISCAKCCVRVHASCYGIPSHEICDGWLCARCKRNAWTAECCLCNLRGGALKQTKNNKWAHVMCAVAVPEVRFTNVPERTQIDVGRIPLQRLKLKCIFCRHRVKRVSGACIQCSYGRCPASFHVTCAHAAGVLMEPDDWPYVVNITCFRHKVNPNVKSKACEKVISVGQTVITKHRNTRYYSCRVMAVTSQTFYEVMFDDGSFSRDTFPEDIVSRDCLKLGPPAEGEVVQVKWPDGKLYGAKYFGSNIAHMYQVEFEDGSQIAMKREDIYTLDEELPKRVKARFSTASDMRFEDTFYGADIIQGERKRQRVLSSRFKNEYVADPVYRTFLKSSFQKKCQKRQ

[20] = biological target: Lysine-specific demethylase 4A (Homo sapiens, UniProt O75164); assay: JMJD2A histone demethylase inhibitors, dose response, selectivity assay for GASC-1 inhibitor project, biochemical, DELFIA europium, cherry-picked samples (AID 488840)
Sequence of Lysine-specific demethylase 4A (O75164 whole entry): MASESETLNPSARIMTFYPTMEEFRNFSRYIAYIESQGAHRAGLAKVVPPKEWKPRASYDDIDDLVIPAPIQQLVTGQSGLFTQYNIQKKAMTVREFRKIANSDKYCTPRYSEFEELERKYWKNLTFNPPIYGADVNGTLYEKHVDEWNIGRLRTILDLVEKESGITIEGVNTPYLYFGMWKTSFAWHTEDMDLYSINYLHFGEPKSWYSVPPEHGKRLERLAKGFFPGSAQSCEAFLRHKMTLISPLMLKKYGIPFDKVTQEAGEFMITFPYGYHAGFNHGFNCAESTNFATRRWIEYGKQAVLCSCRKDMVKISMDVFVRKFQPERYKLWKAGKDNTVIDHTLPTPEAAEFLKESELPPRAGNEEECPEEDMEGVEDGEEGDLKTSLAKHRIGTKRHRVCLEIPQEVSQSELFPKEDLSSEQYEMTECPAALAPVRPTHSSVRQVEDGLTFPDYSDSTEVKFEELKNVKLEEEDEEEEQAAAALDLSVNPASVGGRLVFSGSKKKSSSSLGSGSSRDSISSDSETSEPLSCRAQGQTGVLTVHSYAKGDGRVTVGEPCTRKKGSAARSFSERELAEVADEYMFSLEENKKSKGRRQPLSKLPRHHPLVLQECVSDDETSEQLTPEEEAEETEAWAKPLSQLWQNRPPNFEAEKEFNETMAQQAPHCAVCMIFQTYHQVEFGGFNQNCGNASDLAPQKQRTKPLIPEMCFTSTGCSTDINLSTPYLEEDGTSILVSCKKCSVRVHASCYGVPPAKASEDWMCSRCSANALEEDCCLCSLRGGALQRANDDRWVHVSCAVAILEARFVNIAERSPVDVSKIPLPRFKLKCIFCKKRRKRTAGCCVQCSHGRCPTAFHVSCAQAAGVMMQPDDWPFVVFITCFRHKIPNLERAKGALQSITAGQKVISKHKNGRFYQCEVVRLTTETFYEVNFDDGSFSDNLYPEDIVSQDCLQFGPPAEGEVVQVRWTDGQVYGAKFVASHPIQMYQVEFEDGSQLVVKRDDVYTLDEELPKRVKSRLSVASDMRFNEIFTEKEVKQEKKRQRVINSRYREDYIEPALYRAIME

COc1ccc2c(C)cc(N3CCCCCC3)nc2c1
EC50 [1]: 0.531 µM (active) | EC50 [2]: > 260 µM (inactive) | IC50 [3]: 2.38 µM (active)

CCCCCn1ccc(=N)cc1
IC50 [4]: 2.58 µM (active) | IC50 [5]: > 100 µM (inactive) | IC50 [6]: 3.31 µM (active) | IC50 [7]: 1.92 µM (active) | IC50 [8]: 1.3 µM (active) | IC50 [9]: 2.73 µM (active)

COc1ccc2[nH]cc(C(=O)C(=O)N3CCCCC3)c2c1
AC50 [10]: 93.6 µM (active)

N#C/C(=C\c1ccc(O)c(O)c1)C(=O)c1ccc(O)c(O)c1
IC50 [11]: 7.13 µM (active) | EC50 [12]: 6.36 µM (active) | IC50 [13]: > 100 µM (inactive) | AC50 (Cytochrome P450 1A2): 31.6 µM (inconclusive) | IC50 (Large T antigen): 0.82 µM (active) | IC50 [14]: 9.49 µM (active) | IC50 [15]: 2.68 µM (active) | IC50 [16]: 4.41 µM (active) | IC50 [17]: 0.259 µM (active)

O=c1[nH]cc(/N=C/c2cc(Cl)cc(Cl)c2O)c(=O)[nH]1
AC50 [18]: 4.92 µM (active) | EC50 (Protein RecA): 4.14 µM (active) | AC50 [19]: 0.749 µM (active) | AC50 [20]: 18.1 µM (active)

Reference: ChEMBL document CHEMBL1201862, “PubChem BioAssay data set” (2004)
